Test results published in patent publication US20260109727A1, “RNA CONSTRUCTS AND USES THEREOF” (BioNTech SE, priority 2022, published 2026).
Entries after “also recorded” stand apart in the source; their conditions may differ.

Assays:
[1] = test system: human PBMCs; assay: Cytokine/chemokine secretion in human PBMCs (MSD V-PLEX); format: cell-based
Method: Human buffy coats from healthy individuals were obtained from the Faculty of Medicine of Johannes Gutenberg University, Mainz and used to isolate peripheral blood mononuclear cells (PBMCs) on a Ficoll-Paque™ PLUS (Cytiva, Marlborough, MA, USA) density gradient. In preparation for mRNA transfection, cryopreserved PBMCs were thawed and seeded into 96-well plates at a density of 5×10^5 cells per well in 190 μL RPMI medium supplemented with 1% non-essential amino acids (NEAA), 1% sodium pyruvate and 10% Fetal Bovine Serum (Merck, Germany). Cells were maintained at 37° C. with 5% CO2 until transfection with 0.5, 1.5, 5.0 and 15 μg/ml lipoplex-formulated EPO mRNA (LPX-RNA), as described in Kranz, L. M., et al. (2016) Nature, 534, 396-401. The complexed RNA (10 μl per well) was added in triplicates and supernatants were collected at 24 h after transfection to perform single cell cytotoxicity assay and to measure the cytokine/chemokine profile. To determine the cell viability and the production of selected cytokines/chemokines, supernatants from human PBMCs transfected with LPX-RNA were subjected to XTT cytotoxicity test using Cell Proliferation Kit II (Sigma-Aldrich) and cytokine/chemokine profile analysis using the Meso Scale Discovery V-PLEX Custom Human Biomarkers Proinflammatory and Chemokine Panel (Meso Scale Diagnostics—MSD, Rockville, MD, USA) according to the manufacturer's instructions, respectively. In regards of cytokine/chemokine profile analysis, a sample dilution of 1:5 (supernatant:MSD diluent) was used in each experiment. The levels of IL-6 (Interleukin 6), TNF-α (Tumor necrosis factor alpha), IL-1 (Interleukin 1 beta), IFN-γ (Interferon gamma), MCP-1 (Monocyte Chemoattractant Protein-1), […] (Macrophage inflammatory protein 1 beta) and IL-10 (Interleukin 10) were quantified 24 h after the mRNA transfection. […] This low immunogenicity can be directly attributed to the nucleoside modifications incorporated into the mRNA. To illustrate this, cells treated with lipid-complexed U-containing mRNA capped with compound I′-1, CC114 and CC413 induced much higher proinflammatory cytokine/chemokine responses even at their lowest dose (0.5 μg/ml) when compared to m1Ψ-modified mRNA (FIG. 6).
To test the effect of the cap types and mRNA 5′end on immunogenicity in human peripheral blood monocyte cells (PBMCs) we compared changes in levels of cytokines and chemokines after application of Lipoplex (LPX)-formulated EPO mRNAs. First, we compared the impact of m1Ψ-mRNA capped with I′-6 containing a UAGU 5′end vs. CC413 (AGAAU 5′end) (FIG. 12). […] Second, we compared capped EPO uRNA with I′-6 or I′-1 (FIG. 14). In this case both mRNAs had the same TAGT 5′end. […] Thus, benefit of I′-6 in decreasing the immunogenicity and thus increasing safety was found when I′-6 was used.

[2] = test system: BALB/c mice; assay: Hematocrit in mice IV injected with 3 μg TransIT-complexed EPO mRNA; format: in vivo
Method: To confirm in vitro data, female BALB/c mice from Jackson Laboratory (Bar Harbor, ME, USA) at the age of eight to ten weeks were used for in vivo experiment in accordance with federal policies on animal research (Ethics approval number: G18-12-027). Mice (n=3/group) were injected intravenously (i.v.) with 3 μg TransIT-complexed (Mirus Bio) EPO mRNAs in a final volume of 200 μL Dulbecco's modified Eagle medium (DMEM). Mice used as controls were injected with TransIT-reagent diluted in DMEM but without RNA. Mice were injected with EPO mRNA complexed with TransIT-reagent and EPO levels in plasma were measured using ELISA (FIG. 8A). Hematocrit was measured from 18 μl of blood that was collected at the indicated times using centrifugation in Drummond microcaps glass capillary tubes (20 μl volume, Merck, Germany) as described (20) (FIG. 8B). After determination of the hematocrit, capillary tubes were snapped open, and the plasma was collected to measure EPO levels and analyzed for mouse Erythropoietin DuoSet ELISA kit (R&D Systems) according to the manufacturer's instructions. […] EPO RNA containing m1Ψ translated two-fold more than U-containing mRNA at each time points (FIG. 8A). Both compound I′-1 and compound I′-6 are suitable for translation of the encoded protein and each cap analog can be used for synthesizing of non-replicating functional mRNAs (FIG. 8A, 8B).
In each in vivo experiment in order to measure the translational efficiency and to determine the functionality of EPO mRNA capped with I′-1, I′-2, I′-3, I′-5, I′-6, I′-9, I′-12, I′-13, I′-16, CC114, and CC413 in vivo, female BALB/c mice from Jackson Laboratory (Bar Harbor, ME, USA) at the age of eight to ten weeks were used for in accordance with federal policies on animal research (Ethics approval number: G19-12-074). In each case, mice (n=3/group) were injected intravenously (i.v.) with 3 μg TransIT-complexed (Mirus Bio) EPO mRNAs in a final volume of 200 μL Dulbecco's modified Eagle medium (DMEM). Mice used as controls were injected with TransIT-reagent diluted in DMEM but without RNA. To measure hematocrits and EPO levels in the individual mice that were injected with EPO mRNA capped with I′-6, I′-1, CC114, and CC413 and complexed with TransIT-reagent, 18 μL of blood was collected at the indicated times (FIG. 8B) and centrifuged in Drummond microcaps glass capillary tubes (20 μl volume, Merck, Germany) as described (19). After determination of the hematocrit, capillary tubes were snapped open, and the plasma was collected to measure EPO levels and analyzed for mouse Erythropoietin DuoSet ELISA kit (R&D Systems) according to the manufacturer's instructions. […] EPO RNA containing m1Ψ modifications translated 2-3-fold, 5-fold, and 10-fold more than U-containing mRNAs at 6-24, 48 and 72 hours after injections, respectively. (FIG. 8A). […] To address translation of I′-6-capped mRNA in human primary hepatocytes, EPO level was measured from supernatants transfected using 0.1 μg/well TransIT-formulated I′-6- or CC114-capped uRNA (FIG. 13).

- cytokines (IL-6, TNF-α, IL-1β, IFN-γ), compared with I′-1 ([1]; EPO uRNA, same TAGT 5′end, 24 h after application): significantly lower
- increase in levels of proinflammatory cytokines and chemokines, compared with CC413 ([1]; LPX-formulated EPO mRNA, across the concentrations tested): less of an increase
- MIP-1β, compared with CC413 ([1]; LPX-m1Ψ-mRNA, 0.333 and 1 μg/well (1.7 and 5 μg/ml)): decrease
- cytokines (IL-6, TNF-α, IL-1, IFN-γ), compared with CC413 ([1]; LPX-m1Ψ-mRNA, 1 and 3 μg/well (5 and 15 μg/ml)): significant decrease
SMILES: COC1C(OP(=O)(O)OC[C@H]2O[C@@H](c3cn(C)c(=O)[nH]c3=O)C(O)C2O)[C@@H](COP(=O)(O)OP(=O)([O-])OP(=O)(O)OC[C@H]2O[C@@H](n3c[n+](C)c4c(O)nc(N)nc43)C(O)C2OC)O[C@H]1n1cnc2c(N)ncnc21 (stereo partly shown) [I′-6, m^7G(^3′-OMe)pppA(2′-OMe)pm^1Ψ]
- hematocrit value at 21 days compared with CC413-capped mRNA ([2]; 21 days after administration): at the same level as the values of D7 and D14
- decrease of hematocrit values from D14 ([2]; D14 after injection): not observed
- hematocrit values ([2]; up to day 21 after injection): very high and further increased after day 14; also recorded: remained very high level
